According to patent US8614237B2, “Benzofuran-4,5-diones as selective peptide deformylase inhibitors” (Sloan-Kettering Institute for Cancer Research, priority 2009, dated 2013):
Converted amounts (≈) assume the structure as drawn.

Legend:
ALL3 cells = test: Cytotoxicity in vitro toward ALL3 cells; assay type: cell-based; details: Homo sapiens
Source text: (§1) The cell lines HL-60 (human acute promyelocytic leukemia), Jurkat (human acute T cell leukemia), Molt3 (acute lymphoblastic leukemia), CWR22 (prostate carcinoma), HEK293 (human embryonic kidney), K562 (human chronic myeloid leukemia lymphoblasts), Y79 (human retinoblastoma) were obtained from the ATCC, and cultured following ATCC recommendations. The cell line NCEB-1 (human non-hodgkin lymphoma) was obtained from Dr. O'Connor (Sloan-Kettering Institute). The cell line HL-60/RV+ (a P-glycoprotein-overexpressing multi-drug resistant HL-60 variant selected by continuous exposure to vincristine) was described elsewhere (Weisburg et al., J. Biol. Chem. 1999, 274, 10877-10888). The cell line ALL-3 (acute lymphoblastic leukemia isolated from a patient treated at MSKCC and characterized as Philadelphia chromosome positive) was obtained from Dr. Mark Frattini (MSKCC). The assay used for the cytotoxicity studies is based on the dye resazurin and commercially sold as Alamar Blue (O'Brien et al., Eur. J. Biochem. 2000, 267, 5421-5426). Cells were added in 45 μL medium to the pre-plated compounds in 5 μL of 1% DMSO (v/v). After incubation for 72 hours, 5 μL of Alamar Blue was added.

[1] = In vivo toxicity of benzofuran-4,5-diones; details: i.p. twice a day for four days, 1 to 10 mg/kg, monitored 14 days
Experimental: Lead compound SKC-BF-13 and another newly synthesized derivative SKC-BF-02 were selected in order to assess the in vivo toxicity of benzofuran-4,5-diones. Three mice per group were treated with BF-13 at three doses (i.e., 1, 5 and 10 mg/kg) or with SKC-BF-02 at two doses (i.e., 1 and 10 mg/kg). A control group of two mice were treated with the vehicle (i.e., 20% DMSO v/v). Mice were treated twice a day for four days via intraperitoneal administration. Their weight was monitored along with any other signs of toxicity for fourteen days.
ICR/SCID male mice about three weeks old were used in this study. Three mice per group were treated with BF-13 at three doses (i.e., 1, 5 and 10 mg/kg) or with SKC-BF-02 at two doses (i.e., 1 and 10 mg/kg). A control group of two mice were treated with the vehicle (20% DMSO v/v). Mice were treated twice a day for four days via intraperitoneal administration. Their weight was monitored as well as any other sign of toxicity for 14 days.
SKI 396848 (SKC-BF-12) and SKI 396840 (SKC-BF-02) were synthesized during the first round of exploratory chemistry to assess the in vivo toxicity of benzofuran-4,5-diones (as shown in FIG. 8). Three ICR/SCID male mice per group were treated with SKI 396848 at three doses: 1, 5 and 10 mg/kg or with SKI 396840 at two doses: 1 and 10 mg/kg. A control group of two mice was treated with the vehicle (20% DMSO v/v). Mice were treated twice a day for four days i.p. Their weight was monitored as well as any other sign of toxicity for 14 days. One treated mouse per group was evaluated by a pathologist.

EcPDF [2] = tested on: EcPDF
Experimental: Head of the field: EcPDF %I 10uM
(§2) Specificity profiling of the derivatives of benzofuran-4,5-diones.
Where the first naming reader finds the target: head: EcPDF %I 10uM

ALL-3 cells = test: In vivo efficacy, mouse xenograft model using ALL-3 cells; details: 1 and 3 mg/kg i.p. twice a week for two weeks
Experimental: The in vivo efficacy of SKI 396848 (SKC-BF-12) was assessed in a mouse xenograft model using ALL-3 cells isolated from a patient with acute lymphoblastic leukemia refractory to imatinib. Three mice per group were treated at two doses: 1 and 3 mg/kg. A control group of three mice was treated with the vehicle (20% DMSO v/v). Mice were treated twice a week for two weeks i.p. Their weight was monitored as well as any other sign of toxicity for 14 days. […] Nonetheless, the observed difference between the treated groups and the control group was significant, and our study provides a solid proof of concept for the use of benzofuran-4,5-dione based HsPDF inhibitors as novel antitumor agents in vivo.

MMP-1 = MMP-1 %I 100uM
Experimental: Table printed on a drawing sheet, Figure 5
Head of the field: MMP-1 %I 100uM
Footnotes: -26 124 % inhibition
The patent's description of the figure: FIG. 5.
Where the first naming reader finds the target: head: MMP-1 %I 100uM

[3] = tested on: panel of cancer cell lines; test: Cytotoxicity assay (Alamar Blue), primary hits and first generation derivatives; assay type: cell-based, human; details: Homo sapiens; first generation, panel of nine cancer cell lines; SKC-BF-13: on four cell lines; read-out: cytotoxicity IC50, Alamar Blue viability assay
Experimental: Cytotoxicity assays were performed in order to profile the thirty-three newly synthesized benzofuran-4,5-dione derivatives on a panel of nine cancer cell lines. A heat map summarizes the calculated IC50s ([…]). Twelve out of thirteen derivatives potent toward HsPDF were also cytotoxic toward several cancer cell lines (FIG. 7).
as §1, with “Cells were added in 45 μL medium to the pre-plated compounds in 5 μL of 1% DMSO (v/v). After incubation for 72 hours, 5 μL of Alamar Blue was added.” left out

Jurkat cell line = test: Cytotoxicity in vitro toward Jurkat cell line; assay type: cell-based; details: Homo sapiens, acute T-cell leukemia
Source text: as §1

Jurkat tumors = test: In vivo study, mouse xenograft with Jurkat tumors; details: 5, 15 and 30 mg/kg i.p. twice a week for three weeks
Experimental: In this study, higher doses could be achieved by injecting the drug in a small volume (100 μL) of 100% DMSO (v/v). Three mice per group were treated at three doses: 5, 15 and 30 mg/kg. A control group of three mice was treated with the vehicle (100% DMSO v/v). Mice were treated i.p. twice a week for three weeks. Unfortunately, a large variability in the growth of the Jurkat tumors caused data interpretation to be difficult.

HsPDF = molecular target: T1, HsPDF (Homo sapiens, UniProt Q9HBH1); test: FP binding assay (fluorescence polarization, probe SKI 267088), specificity profiling and dose response; details: dose response, 12 point doubling dilutions, upper limit 100 μM
T1 construct: A 63 amino acid N-terminally truncated human peptide deformylase (HsPDF); 6His (C); made in house; host or cells: E. coli BL21 (DE3), co-transformed with the GroES/EL chaperone plasmid
T1 sequence (Q9HBH1 64-243 limits assumed): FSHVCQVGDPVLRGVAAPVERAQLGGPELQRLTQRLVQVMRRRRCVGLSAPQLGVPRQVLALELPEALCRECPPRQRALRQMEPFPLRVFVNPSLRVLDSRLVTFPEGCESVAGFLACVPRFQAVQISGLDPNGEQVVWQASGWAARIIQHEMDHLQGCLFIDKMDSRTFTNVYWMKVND
Experimental: Specificity profiling was performed on the newly synthesized benzofuran-4,5-diones using the aforementioned FP profiling method (Antczak et al., J. Biomol. Screen 2008, 13, 285-294).
Compounds or high/low controls were added to the wells at a volume of 2 μL. […] High controls consisted of 1% DMSO (v/v). MBP-HsPDF or the metalloprotease to be tested was diluted in the assay buffer (25 mM Hepes, 50 mM NaCl, 0.005% Tween 20, pH 7.5), and 10 μL where added to the 384-well microplates (Low Volume Round Bottom NBS Treated, Corning) to achieve a final concentration of 1 μM. After addition of MBP-HsPDF to the tested compounds, the 384-well microplates were preincubated for one hour at room temperature. Then 8 μL of the probe SKI 267088 in solution in assay buffer was added to the wells at a final concentration of 5 nM. After one hour incubation at room temperature, the fluorescence polarization was read using the Amersham LEADseeker™ Multimodality Imaging System equipped with Cy3 excitation/emission filters and Cy3 FP epi-mirror. Quench tests were performed in duplicate by measuring the fluorescence polarization of wells containing the probe, pre- and post-addition of the compounds at 100 μM.
In each assay, the signal inhibition induced by the compounds was expressed as a percentage compared to high and low controls located on the same plate, as defined as % Inhibition=(high control average−read value)/(high control average−low control average)×100. The dose response was assessed in duplicate and using 12 point doubling dilutions with 100 μM compound concentration as the upper limit. The dose response curve for each set of data was fitted separately, and the two IC50 values obtained were averaged.

EcPDF [4] = tested on: EcPDF; remark: listed apart in the source
Experimental: Head of the field: EcPDF %I 100uM
as §2
Where the first naming reader finds the target: head: EcPDF %I 100uM

[5] = Aqueous solubility limit by laser nephelometry; assay type: physicochemical; details: aqueous solution (composition not stated), kinetic from dmso stock, upper limit 10 μM
Source text: We assessed the aqueous solubility limit for the 26 novel benzofuran-4,5-diones using laser nephelometry. […] Data were compared to standards of known turbidity to assess the solubility limit for each compound.

[6] = tested on: panel of eight cancer cell lines; test: Cytotoxicity profiling of 26 second generation derivatives (Alamar Blue viability assay, nuclei count); assay type: cell-based, human
Experimental: Cytotoxicity profiling for the 26 newly synthesized benzofuran-4,5-diones derivatives was performed on a panel of eight cancer cell lines.
The cell lines HL-60 (human acute promyelocytic leukemia), Jurkat (human acute T cell leukemia), Molt3 (acute lymphoblastic leukemia), CWR22 (prostate carcinoma), K562 (human chronic myeloid leukemia lymphoblasts), and Y79 (human retinoblastoma) were obtained from the ATCC, and cultured following ATCC recommendations. The cell line HL-60/RV+ (a P-glycoprotein-overexpressing multi-drug resistant HL-60 variant selected by continuous exposure to vincristine) was described elsewhere (Weisburg J H, Roepe P D, Dzekunov S, Scheinberg D A: Intracellular pH and multidrug resistance regulate complement-mediated cytotoxicity of nucleated human cells. J Biol Chem 1999; 274:10877-10888). The cell line ALL-3 (acute lymphoblastic leukemia isolated from a patient treated at MSKCC and characterized as Philadelphia chromosome positive) was obtained from Dr. Mark Frattini (MSKCC). The viability assay we used in this study is based on the dye resazurin and commercially sold as Alamar Blue (O'Brien J, Wilson I, Orton T, Pognan F: Investigation of the Alamar Blue (resazurin) fluorescent dye for the assessment of mammalian cell cytotoxicity. Eur J Biochem 2000; 267:5421-5426). Cells were added in 45 μL medium to the pre-plated compounds in 5 μL of 1% DMSO (v/v). After 72 h incubation was added 5 μL Alamar Blue. […] Plates were then fixed and nuclei were stained using Hoechst for the nuclear count proliferation assay. Imaging for Hoechst staining of nuclei count were acquired with an IN Cell Analyzer 2000 epifluorescence automated microscope ([…]) (GE Healthcare, Piscataway, N.J.) equipped with a 4× objective, using D360/40 excitation filter (360 nm excitation peak; +/−40 nm bandpass), HQ535/50 emission filter (535 nm emission peak; +/−50 nm bandpass) and Q505LP dichroic, and exposing fields for 200 milliseconds in the blue channel. Image analysis was conducted with the IN Cell Developer 1.7 software (GE Healthcare) using custom-developed analysis modules. The analysis module used for nuclei count performs object segmentation in the blue channel to automatically define and count the number of nuclei. Data is reported as the sum of imaged nuclei.
In addition of the Alamar Blue viability assay readout, for the adherent cell lines of this panel (CWR22 and Meso47) we performed a direct nuclei count to assess the effect of the novel derivatives on cell proliferation.

solubility [5] [µM] | SMILES | IC50 (ALL3 cells) [µM] | signs of toxicity in vivo (weight and other signs) [1] | EcPDF %I 10uM (EcPDF [2]) [%I] | tumor progression in ALL-3 xenograft (ALL-3 cells) | MMP-1 %I 100uM (MMP-1) [%I] | IC50 [3] [µM] | IC50 (Jurkat cell line) [µM] | body weight of treated groups (Jurkat tumors) | IC50 (HsPDF) [µM] | EcPDF %I 100uM (EcPDF [4]) [%I] | activity against the cell lines of the panel, second generation [6]
– | COc1ccc(C(=O)c2coc3c2C(=O)C(=O)C(Br)=C3Br)cc1OC [SKC-BF-12, 6,7-Dibromo-3-(3,4-dimethoxy-benzoyl)-benzofuran-4,5-dione] | 36 | None of the treatments were found to induce any signs of toxicity | 35 | only a slight delay in tumor progression | 46 | – | – | – | – | – | –
– | COc1cc(C(=O)c2coc3c2C(=O)C(=O)C(Br)=C3Br)cc(OC)c1OC [SKC-BF-13, 6,7-Dibromo-3-(3,4,5-trimethoxy-benzoyl)-benzofuran-4,5-dione] | – | none of the treatments induced any sign of toxicity | 32 | – | 38 | < 10 | 3 | no loss of weight | 5.2 | 32 | –
5 (≈ 1.95 µg/mL) | O=C1C(=O)c2c(C(=O)c3ccc(Cl)c(Cl)c3)coc2C(Cl)=C1Cl [SKI 417516, 6,7-dichloro-3-(3,4-dichlorobenzoyl)benzofuran-4,5-dione] | – | – | – | – | – | – | – | – | – | – | active against all cell lines of our panel except Meso47
